Patent US20250163054A1, “SUBSTITUTED BICYCLIC HETEROARYL COMPOUNDS USEFUL AS INHIBITORS OF TLR9” (Bristol-Myers Squibb Company, priority 2022, published 2025)

Assays:
Type in all cases: cell-based
human TLR9 = target: T1, human TLR9 (Homo sapiens, UniProt Q9NR96); assay: TLR7/8/9 Inhibition Reporter Assays (TLR9); details: HEK-Blue cells overexpressing human TLR9, SEAP reporter, stimulated with TLR9 ligand ODN2006
T1 construct: host or cells: HEK-Blue cells (HEK293-derived reporter line)
T1 sequence (Q9NR96 26-1032): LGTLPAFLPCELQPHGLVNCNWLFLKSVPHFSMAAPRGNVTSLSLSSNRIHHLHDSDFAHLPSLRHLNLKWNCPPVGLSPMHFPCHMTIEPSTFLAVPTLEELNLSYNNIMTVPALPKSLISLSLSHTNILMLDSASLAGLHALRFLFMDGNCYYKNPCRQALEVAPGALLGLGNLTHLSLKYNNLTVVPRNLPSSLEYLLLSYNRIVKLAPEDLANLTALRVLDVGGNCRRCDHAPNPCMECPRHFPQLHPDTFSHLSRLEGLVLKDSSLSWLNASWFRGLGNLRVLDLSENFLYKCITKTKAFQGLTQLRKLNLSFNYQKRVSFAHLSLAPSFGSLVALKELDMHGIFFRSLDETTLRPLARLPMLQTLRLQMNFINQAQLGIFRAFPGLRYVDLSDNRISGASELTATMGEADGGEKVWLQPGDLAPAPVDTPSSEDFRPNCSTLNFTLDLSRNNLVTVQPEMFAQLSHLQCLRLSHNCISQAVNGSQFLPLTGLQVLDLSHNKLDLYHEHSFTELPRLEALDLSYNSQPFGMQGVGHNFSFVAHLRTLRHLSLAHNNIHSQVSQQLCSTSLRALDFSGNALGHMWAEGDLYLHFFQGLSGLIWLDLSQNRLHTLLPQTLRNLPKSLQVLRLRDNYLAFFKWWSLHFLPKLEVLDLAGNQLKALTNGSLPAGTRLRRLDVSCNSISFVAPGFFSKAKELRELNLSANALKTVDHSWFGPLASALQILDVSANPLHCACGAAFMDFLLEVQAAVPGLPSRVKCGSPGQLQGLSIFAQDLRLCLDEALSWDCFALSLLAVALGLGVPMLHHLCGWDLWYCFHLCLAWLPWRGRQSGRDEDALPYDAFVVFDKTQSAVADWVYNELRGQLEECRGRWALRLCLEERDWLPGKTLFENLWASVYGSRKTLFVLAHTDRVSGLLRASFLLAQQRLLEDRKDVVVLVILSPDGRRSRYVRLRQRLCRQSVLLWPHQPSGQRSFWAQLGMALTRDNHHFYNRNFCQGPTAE
Procedure: (§1) HEK-Blue™-cells (Invivogen) overexpressing human TLR7, TLR8 or TLR9 receptors were used for screening inhibitors of these receptors using an inducible SEAP (secreted embryonic alkaline phosphatase) reporter gene under the control of the IFN-β minimal promoter fused to five NF-κB and AP-1-binding sites. Cells are seeded into Greiner 384 well plates (15000 cells per well) that are predispensed (by ECHO) with testing compounds in DMSO to yield a final dose response concentration range of 0.85 nM-[…]. After a 60 minute compound pre-treatment in 37° C. incubator, the cells are then stimulated with a TLR7 ligand (gardiquimod at a final concentration of […]), TLR8 ligand (R848 at a final concentration of […]) or TLR9 ligand (ODN2006 at a final concentration of 200 nM) to activate NF-κB and AP-1 which induce the production of SEAP. After a 22 hour incubation at 37° C., 5% CO2, SEAP levels are determined with the addition of HEK-Blue™ Detection reagent (Invivogen), a cell culture medium that allows for detection of SEAP, according to manufacturer's specifications. The percent inhibition is determined as the % reduction in the HEK-Blue signal present in wells treated with agonist plus DMSO alone compared to wells treated with a known inhibitor.

human TLR8 = target: T2, human TLR8 (Homo sapiens, UniProt Q9NR97); assay: TLR7/8/9 Inhibition Reporter Assays (TLR8); details: HEK-Blue cells overexpressing human TLR8, SEAP reporter, stimulated with TLR8 ligand R848
T2 construct: host or cells: HEK-Blue cells (HEK293-derived reporter line)
T2 sequence (Q9NR97 27-1041): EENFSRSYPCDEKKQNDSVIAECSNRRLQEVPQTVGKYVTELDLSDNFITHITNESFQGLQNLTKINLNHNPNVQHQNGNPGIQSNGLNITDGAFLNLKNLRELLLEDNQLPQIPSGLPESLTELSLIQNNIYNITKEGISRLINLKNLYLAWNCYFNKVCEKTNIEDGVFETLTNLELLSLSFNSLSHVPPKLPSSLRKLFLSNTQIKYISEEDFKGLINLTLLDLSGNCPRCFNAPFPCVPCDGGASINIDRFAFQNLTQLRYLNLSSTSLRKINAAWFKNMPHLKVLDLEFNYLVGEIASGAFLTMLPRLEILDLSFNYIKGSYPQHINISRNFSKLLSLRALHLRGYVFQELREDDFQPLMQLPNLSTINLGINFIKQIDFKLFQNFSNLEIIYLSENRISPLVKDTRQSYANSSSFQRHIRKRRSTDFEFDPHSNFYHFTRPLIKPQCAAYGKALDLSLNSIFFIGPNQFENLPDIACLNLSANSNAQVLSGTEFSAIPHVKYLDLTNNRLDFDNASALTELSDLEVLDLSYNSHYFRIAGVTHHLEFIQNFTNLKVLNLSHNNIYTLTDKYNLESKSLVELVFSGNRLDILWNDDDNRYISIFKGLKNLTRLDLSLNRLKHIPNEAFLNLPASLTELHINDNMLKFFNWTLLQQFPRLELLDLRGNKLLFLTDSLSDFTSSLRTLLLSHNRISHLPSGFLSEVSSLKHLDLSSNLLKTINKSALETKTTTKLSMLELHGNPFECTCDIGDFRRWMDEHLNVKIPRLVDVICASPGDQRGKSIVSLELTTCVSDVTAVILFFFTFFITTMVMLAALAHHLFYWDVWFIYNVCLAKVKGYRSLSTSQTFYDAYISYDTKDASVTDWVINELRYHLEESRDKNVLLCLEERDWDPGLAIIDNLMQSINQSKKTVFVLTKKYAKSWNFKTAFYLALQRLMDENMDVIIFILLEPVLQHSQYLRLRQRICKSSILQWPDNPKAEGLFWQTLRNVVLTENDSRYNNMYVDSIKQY
Procedure: as §1

human TLR7 = target: T3, human TLR7 (Homo sapiens, UniProt Q9NYK1); assay: TLR7/8/9 Inhibition Reporter Assays (TLR7); details: HEK-Blue cells overexpressing human TLR7, SEAP reporter, stimulated with TLR7 ligand gardiquimod
T3 construct: host or cells: HEK-Blue cells (HEK293-derived reporter line)
T3 sequence (Q9NYK1 27-1049): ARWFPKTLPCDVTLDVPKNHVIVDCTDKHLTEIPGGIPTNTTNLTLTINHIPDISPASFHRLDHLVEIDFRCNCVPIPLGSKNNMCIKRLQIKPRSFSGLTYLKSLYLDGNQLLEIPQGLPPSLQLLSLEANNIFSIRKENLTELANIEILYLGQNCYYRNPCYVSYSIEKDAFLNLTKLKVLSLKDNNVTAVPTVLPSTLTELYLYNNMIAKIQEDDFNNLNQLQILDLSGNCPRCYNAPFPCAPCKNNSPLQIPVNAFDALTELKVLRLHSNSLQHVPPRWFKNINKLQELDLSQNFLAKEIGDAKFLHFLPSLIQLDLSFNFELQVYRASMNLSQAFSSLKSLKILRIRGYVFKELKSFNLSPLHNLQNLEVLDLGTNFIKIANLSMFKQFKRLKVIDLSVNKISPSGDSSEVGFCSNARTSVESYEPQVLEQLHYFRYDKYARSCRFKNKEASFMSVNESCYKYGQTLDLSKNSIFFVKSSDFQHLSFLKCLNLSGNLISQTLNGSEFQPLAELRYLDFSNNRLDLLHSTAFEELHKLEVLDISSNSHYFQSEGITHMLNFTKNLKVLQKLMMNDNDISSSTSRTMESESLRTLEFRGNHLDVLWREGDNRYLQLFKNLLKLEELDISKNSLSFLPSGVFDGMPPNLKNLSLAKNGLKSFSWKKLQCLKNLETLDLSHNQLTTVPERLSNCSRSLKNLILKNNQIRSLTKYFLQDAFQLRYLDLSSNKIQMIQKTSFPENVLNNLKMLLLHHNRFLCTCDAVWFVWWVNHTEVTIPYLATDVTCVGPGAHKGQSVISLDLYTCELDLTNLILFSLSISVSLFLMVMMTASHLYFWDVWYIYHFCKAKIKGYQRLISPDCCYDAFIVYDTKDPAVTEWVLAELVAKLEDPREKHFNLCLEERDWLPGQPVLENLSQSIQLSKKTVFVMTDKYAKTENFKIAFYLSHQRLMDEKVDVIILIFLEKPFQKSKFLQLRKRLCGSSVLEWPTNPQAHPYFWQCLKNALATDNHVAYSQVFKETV
Procedure: as §1

Row | IC50 (human TLR9) | IC50 (human TLR8) | IC50 (human TLR7) | SMILES
1 | 0.22 µM | 4.2 µM | 3.8 µM | COc1ccc(-c2nc3cnc(-c4ccc(N5C[C@H]6CN(CC(C)C)C[C@H]6C5)cc4)cc3n2C2CC2)cc1OC [Example 82, 1-cyclopropyl-2-(3,4-dimethoxyphenyl)-6-(4-((3aR,6aS)-5-isobutylhexahydropyrrolo[3,4-c]pyrrol-2(1H)-yl)phenyl)-1H-imidazo[4,5-c]pyridine]
2 | 0.059 µM | > 50 µM | 5.4 µM | COc1ccc(-c2nc3c(C)nc(-c4ccc(N5C[C@H]6CN(CC(C)C)C[C@H]6C5)cc4)cc3n2C)cc1OC [Example 65, 2-(3,4-dimethoxyphenyl)-6-(4-((3aR,6aS)-5-isobutylhexahydropyrrolo[3,4-c]pyrrol-2(1H)-yl)phenyl)-1,4-dimethyl-1H-imidazo[4,5-c]pyridine]
3 | 0.91 µM | > 50 µM | 2.1 µM | Cc1cc(-c2nc3c(C)nc(-c4ccc(N5CCN(C6CCC6)CC5)cc4)cc3n2C)cc(C)n1 [Example 16, 6-(4-(4-cyclobutylpiperazin-1-yl)phenyl)-2-(2,6-dimethylpyridin-4-yl)-1,4-dimethyl-1H-imidazo[4,5-c]pyridine]
4 | 0.22 µM | 0.79 µM | 2.8 µM | CC(C)N1CC2(CCN(c3ccc(-c4cc5c(cn4)nc(-c4ccc(S(C)(=O)=O)cc4)n5C)cc3)C2)C1 [Example 64, 6-(4-(2-isopropyl-2,6-diazaspiro[3.4]octan-6-yl)phenyl)-1-methyl-2-(4-(methylsulfonyl)phenyl)-1H-imidazo[4,5-c]pyridine]
5 | 0.6 µM | 2.2 µM | 4.5 µM | COCCN1CC2(CCN(c3ccc(-c4cc5c(cn4)nc(-c4ccc(S(C)(=O)=O)cc4)n5C)cc3)CC2)C1 [Example 105, 6-(4-(2-(2-methoxyethyl)-2,7-diazaspiro[3.5]nonan-7-yl)phenyl)-1-methyl-2-(4-(methylsulfonyl)phenyl)-1H-imidazo[4,5-c]pyridine]
6 | 0.24 µM | 9.5 µM | > 50 µM | Cc1nc(-c2ccc(CN3CCC(N4CCOCC4)CC3)cc2)cc2c1nc(-c1ccc(S(C)(=O)=O)cc1)n2C [Example 54, 4-(1-(4-(1,4-dimethyl-2-(4-(methylsulfonyl)phenyl)-1H-imidazo[4,5-c]pyridin-6-yl)benzyl)piperidin-4-yl)morpholine]
7 | 0.22 µM | 7.4 µM | 1 µM | COc1ccc(-c2nc3c(C)nc(-c4ccc(N5CCN(C(C)C)CC5)cc4)cc3n2C)cc1OC [Example 1, 2-(3,4-dimethoxyphenyl)-6-(4-(4-isopropylpiperazin-1-yl)phenyl)-1,4-dimethyl-1H-imidazo[4,5-c]pyridine]
8 | 0.029 µM | 20 µM | 2.3 µM | COc1ccc(-c2nc3c(C)nc(-c4ccc(N5C[C@@H]6CN(C7CCC7)C[C@@H]6C5)cc4)cc3n2C)cc1OC [Example 66, 6-(4-((3aR,6aS)-5-cyclobutylhexahydropyrrolo[3,4-c]pyrrol-2(1H)-yl)phenyl)-2-(3,4-dimethoxyphenyl)-1,4-dimethyl-1H-imidazo[4,5-c]pyridine]
9 | 0.23 µM | 41 µM | 6.1 µM | Cc1nc(-c2ccc(C3CCN(C)CC3)cc2)cc2c1nc(-c1ccc(S(C)(=O)=O)cc1)n2C [Example 26, 1,4-dimethyl-6-(4-(1-methylpiperidin-4-yl)phenyl)-2-(4-(methylsulfonyl)phenyl)-1H-imidazo[4,5-c]pyridine]
10 | 2.3 µM | – | 6.6 µM | Cc1ccccc1C(=O)N1CCC(NCc2ccc(-c3cc4c(nc(-c5ccc(S(C)(=O)=O)cc5)n4C)c(C)n3)cc2)CC1 [Example 51, (4-((4-(1,4-dimethyl-2-(4-(methylsulfonyl)phenyl)-1H-imidazo[4,5-c]pyridin-6-yl)benzyl)amino)piperidin-1-yl)(o-tolyl)methanone]
11 | 0.81 µM | – | 5.5 µM | Cc1nc(-c2ccc(C(=O)NC3CN(Cc4ccccc4)C3)cc2)cc2c1nc(-c1ccc(S(C)(=O)=O)cc1)n2C [Example 49, N-(1-benzylazetidin-3-yl)-4-(1,4-dimethyl-2-(4-(methylsulfonyl)phenyl)-1H-imidazo[4,5-c]pyridin-6-yl)benzamide]
12 | 0.13 µM | – | – | Cn1c(-c2ccc(S(C)(=O)=O)cc2)nc2cnc(C3CCN(C4CCN(C5CC5)CC4)CC3)cc21 [Example 32, 6-(1′-cyclopropyl-[1,4′-bipiperidin]-4-yl)-1-methyl-2-(4-(methylsulfonyl)phenyl)-1H-imidazo[4,5-c]pyridine]
